# PMC60990 (BMC Microbiology, 2001)
# Legend:
# PfPP5 [1] = target: T1, PfPP5 (Plasmodium falciparum, UniProt Q8WQR3); experiment: […]-phosphohistone dephosphorylation, phosphomolybdate extraction; type: biochemical; settings: activator, 32P-phosphohistone, pH 7.5, 37°C
# T1 sequence (Q8WQR3 1-594): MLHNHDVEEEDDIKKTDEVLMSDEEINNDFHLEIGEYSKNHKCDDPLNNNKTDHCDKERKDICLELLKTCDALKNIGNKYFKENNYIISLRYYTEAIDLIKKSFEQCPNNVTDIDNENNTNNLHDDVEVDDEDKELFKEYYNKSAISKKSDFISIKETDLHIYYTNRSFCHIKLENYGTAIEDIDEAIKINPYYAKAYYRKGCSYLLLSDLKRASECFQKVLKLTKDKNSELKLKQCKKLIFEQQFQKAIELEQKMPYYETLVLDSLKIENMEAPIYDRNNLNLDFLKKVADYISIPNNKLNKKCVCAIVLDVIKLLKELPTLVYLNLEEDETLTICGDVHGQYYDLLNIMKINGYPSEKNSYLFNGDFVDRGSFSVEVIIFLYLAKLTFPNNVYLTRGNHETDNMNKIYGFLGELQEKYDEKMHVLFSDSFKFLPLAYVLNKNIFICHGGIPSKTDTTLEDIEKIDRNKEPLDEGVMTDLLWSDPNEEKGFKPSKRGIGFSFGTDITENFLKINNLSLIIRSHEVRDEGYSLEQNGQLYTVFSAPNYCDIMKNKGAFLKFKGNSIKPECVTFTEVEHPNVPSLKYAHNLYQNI
# PfPP5 [2] = target: T1, PfPP5; experiment: as above; type: biochemical; settings: pH 7.5, 37°C
smiles,measurement,setting,value
CCCCC/C=C\C/C=C\C/C=C\C/C=C\CCCC(=O)O [arachidonic acid],fold stimulation of activity,PfPP5 [1]; about 70 μM fatty acid,~ 3 fold
CCCCCCCC/C=C\CCCCCCCC(=O)O [oleic acid],fold stimulation of activity,PfPP5 [1]; about 80 μM fatty acid,~ 3 fold
CCCCCCCCCCCCCCCCCC(=O)O [stearic acid],"32P-phosphohistone dephosphorylation, phosphomolybdate extraction",PfPP5 [2],"stearic acid, a saturated fatty acid, did not appreciably stimulate PfPP5 activity"
